In PubChem BioAssay (NCI):
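All cell lines were grown in 96-well plates and treated with compound for 48 hours. TGI: total growth inhibition.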

Experiments:
Test in all cases: NCI-60 cell line screen, 48 h
[1] = system: UACC-257 melanoma
[2] = system: TK-10 renal
[3] = system: OVCAR-5 ovarian
[4] = system: NCI-H460 lung
[5] = system: UO-31 renal
[6] = system: M14 melanoma
[7] = system: HL-60(TB) leukemia
[8] = system: SK-MEL-2 melanoma
[9] = system: MOLT-4 leukemia
[10] = system: 786-0 renal
[11] = system: MALME-3M melanoma
[12] = system: SR leukemia
[13] = system: NCI-H23 lung
[14] = system: UACC-62 melanoma
[15] = system: U251 CNS
[16] = system: SK-MEL-28 melanoma
[17] = system: EKVX NSCLC
[18] = system: NCI/ADR-RES ovarian
[19] = system: DU-145 prostate
[20] = system: MDA-MB-231 breast

| Compound | TGI [1] [µM] | TGI [2] [µM] | TGI [3] [µM] | TGI [4] [µM] | TGI [5] [µM] | TGI [6] [µM] | TGI [7] [µM] | TGI [8] [µM] | TGI [9] [µM] | TGI [10] [µM] | TGI [11] [µM] | TGI [12] [µM] | TGI [13] [µM] | TGI [14] [µM] | TGI [15] [µM] | TGI [16] [µM] | TGI [17] [µM] | TGI [18] [µM] | TGI [19] [µM] | TGI [20] [µM] |
| --- | --- | --- | --- | --- | --- | --- | --- | --- | --- | --- | --- | --- | --- | --- | --- | --- | --- | --- | --- | --- |
| CCCCCCCCCCCCn1[nH]c(C)c(C(=S)SCCCCCCCC)c1=O | > 100 | > 100 | > 100 | > 100 | > 100 | > 100 | > 75.7 | > 100 | > 77.2 | > 100 | > 100 | > 39.9 | > 100 | 64.6 | > 100 | > 100 | > 100 |  |  |  |
| CCO/C(O)=C(/C(=N)N1CCCC1)C(=O)Nc1ccc(F)cc1 | > 100 | > 100 | > 100 | > 100 |  | > 100 | > 100 | > 100 | > 100 | > 100 | > 100 |  | 59.4 | > 100 | > 100 | > 100 | > 100 | > 100 | > 100 | > 100 |
| CC(=O)NC(CCCNC(=O)NCCCl)C(=O)NCc1ccccc1 (stereo not given) | > 100 | > 100 |  | > 100 | > 100 | > 100 | > 100 | > 100 | > 100 | > 100 | > 100 | > 100 | > 100 | > 100 | > 100 | > 100 | > 100 |  |  |  |
| CSc1nc2c(c(O)c(C)c(=O)n2C2OCC(OC(C)=O)C(OC(C)=O)C2OC(C)=O)c(=O)n1C (stereo not given) | > 100 | > 100 | > 100 | > 100 | > 100 | > 100 | > 100 | > 100 | > 100 | > 100 | > 100 | > 100 | > 100 | > 100 | > 100 | > 100 |  |  |  |  |
| COc1ccc(N2C(=O)[C@@H]3[C@H](C2=O)c2[nH]c4ccccc4c2C2CCC(C(C)(C)C)C[C@@H]23)cc1 (stereo not given in full) | > 100 | 74.6 | > 100 | > 100 | > 78.4 | > 100 | > 100 | > 89.9 | > 100 | 31.1 | > 85 |  | 66.4 | 49.4 | 49.1 | > 100 | 81.4 |  |  |  |
| COC(=O)NC(=O)c1cn(CCCOC(=O)CCCCCCCCC(=O)OCCCn2cc(C(=O)NC(=O)OC)c(=O)[nH]c2=O)c(=O)[nH]c1=O | > 100 | > 100 | > 100 | > 100 | > 100 | > 100 | > 100 | > 100 | > 100 | > 100 | > 100 | > 100 | > 100 | > 100 |  | > 100 | > 100 |  |  |  |
| Brc1ccc2c(c1)C1C(CO2)C(c2ccccc2)=NN1c1ccccc1 (stereo not given) | > 100 | > 100 | > 100 | > 100 | > 100 |  | > 100 | > 100 | > 100 | > 100 | > 100 |  | > 100 |  | > 100 | > 100 | > 100 |  |  |  |
| O=C(O)Cn1c(=O)[nH]c(=O)c2[nH]cnc21 | > 100 | > 100 | > 100 | > 100 | > 100 | > 100 | > 100 | > 100 | > 100 | > 100 | > 100 | > 100 | > 100 | > 100 | > 100 | > 100 | > 100 |  |  |  |
| Cc1cc(N(CCC#N)CCC#N)ccc1N=Nc1cccc(Cl)c1 | > 100 | > 100 | > 100 | > 100 | > 100 | > 100 | > 100 | > 100 |  | > 100 | > 100 |  | > 100 | > 100 | > 100 | > 100 | > 100 |  |  |  |
| CCC1(N=[N+]=[N-])C(=O)c2ccccc2N(c2ccccc2)C1=O (stereo not given) | > 100 | > 100 | > 100 | > 100 | > 100 | > 100 | > 100 | > 100 | > 100 | > 100 | > 100 | > 100 | > 100 | > 100 | > 100 | > 100 | > 100 |  |  |  |
| O=C1CC(c2ccc(Cl)cc2)C2(C(=O)NC(=O)NC2=O)C(c2ccc(Cl)cc2)C1 (stereo not given) | > 75 | > 75 | > 75 | > 75 | > 75 | > 75 | > 75 | 38.4 | 41.3 | > 75 | 39.8 |  | > 75 | > 75 | > 75 | 37 | > 75 | > 75 | > 75 | 34.8 |
| CC(C)(CC#N)c1cc(CC(C)(C)c2cc(CC(C)(C)c3cc(C(C)(C)C4(C)OCCO4)no3)no2)no1 | > 100 | > 100 | > 100 |  | > 100 | > 100 |  | > 100 | > 100 | 43.1 | > 100 |  | > 100 | > 100 | > 100 | > 100 | > 100 | > 100 | > 100 | 99.7 |
| CCOC(=O)C1=COC(C)(c2ccccc2)CC1=O (stereo not given) | > 100 | > 100 | > 100 | > 100 | > 100 | > 100 |  | > 100 | 98 | > 100 |  |  | > 100 | > 100 | > 100 | > 100 | > 100 | > 100 | > 100 | > 100 |
| N#CC(C(=N/NC(N)=S)/C(=N/NC(N)=S)C(C#N)c1ccc(Cl)cc1)c1ccc(Cl)cc1 (stereo not given) | > 100 | > 100 | > 100 | > 100 | > 100 | > 100 |  | > 100 | > 100 | > 100 | > 100 |  | > 100 | > 100 | > 100 | > 100 | > 100 |  |  |  |
